Assay results from paper PMC5218480 (PLoS ONE, 2017).

Test system: MV-4-11 cells
Experiment: Gene expression microarray analysis (Affymetrix PrimeView) and GSEA
Type: cell-based, human
Design: RFU PODN (11730768_x_at) / Fold change /veh PODN (11730768_x_at) / RFU LINC00158 (11744669_a_at) / Fold change /veh LINC00158 (11744669_a_at) / RFU DUSP10 (11751237_a_at) / Fold change /veh DUSP10 (11751237_a_at) / RFU ID3 (11757404_x_at) / Fold change /veh ID3 (11757404_x_at) / RFU PLEKHG5 (11737974_s_at) / Fold change /veh PLEKHG5 (11737974_s_at) / RFU LRRC4B (11730491_at) / Fold change /veh LRRC4B (11730491_at) / RFU GIMAP4 (11747438_a_at) / Fold change /veh GIMAP4 (11747438_a_at) / RFU KRT8 (11758183_x_at) / Fold change /veh KRT8 (11758183_x_at) / RFU CNN1 (11734310_a_at) / Fold change /veh CNN1 (11734310_a_at) / RFU VPS37D (11726825_at) / Fold change /veh VPS37D (11726825_at) / RFU C10orf10 (11716522_x_at) / Fold change /veh C10orf10 (11716522_x_at) / RFU KIR2DL2 /// KIR2DL4 /// KIR2DL5A /// KIR2DL5B /// KIR2DS1 /// KIR2DS2 /// KIR2DS3 /// KIR2DS4 /// KIR3DL3 /// KIR3DL3 /// KIR3DS1 (11738374_at) / Fold change /veh KIR2DL2 /// KIR2DL4 /// KIR2DL5A /// KIR2DL5B /// KIR2DS1 /// KIR2DS2 /// KIR2DS3 /// KIR2DS4 /// KIR3DL3 /// KIR3DL3 /// KIR3DS1 (11738374_at) / RFU C1QL1 (11718748_at) / Fold change /veh C1QL1 (11718748_at) / RFU TMPRSS4 (11747572_a_at) / Fold change /veh TMPRSS4 (11747572_a_at) / RFU HAMP (11756126_x_at) / Fold change /veh HAMP (11756126_x_at) / RFU RNFT2 (11725882_a_at) / Fold change /veh RNFT2 (11725882_a_at) / RFU NR4A2 (11747474_a_at) / Fold change /veh NR4A2 (11747474_a_at) / RFU ABCC12 (11746883_a_at) / Fold change /veh ABCC12 (11746883_a_at) / RFU TMEM136 (11760407_x_at) / Fold change /veh TMEM136 (11760407_x_at) / RFU CLDN22 /// WWC2 (11732394_at) / Fold change /veh CLDN22 /// WWC2 (11732394_at) / RFU HLA-DPB1 (11760878_x_at) / Fold change /veh HLA-DPB1 (11760878_x_at) / RFU SPINT1 (11716480_a_at) / Fold change /veh SPINT1 (11716480_a_at) / RFU GAP43 (11754022_s_at) / Fold change /veh GAP43 (11754022_s_at) / RFU A4GNT (11735810_at) / Fold change /veh A4GNT (11735810_at) / RFU PRB3 (11715151_x_at) / Fold change /veh PRB3 (11715151_x_at) / RFU TUBB4B (11761932_at) / Fold change /veh TUBB4B (11761932_at) / RFU CAPN14 (11732068_a_at) / Fold change /veh CAPN14 (11732068_a_at) / RFU TMCC2 (11721928_a_at) / Fold change /veh TMCC2 (11721928_a_at) / RFU IRGQ (11745062_a_at) / Fold change /veh IRGQ (11745062_a_at) / RFU FAM174B (11720279_a_at) / Fold change /veh FAM174B (11720279_a_at) / RFU TMPRSS4 (11748680_a_at) / Fold change /veh TMPRSS4 (11748680_a_at) / RFU FAM212B (11763350_a_at) / Fold change /veh FAM212B (11763350_a_at) / RFU PLEKHG5 (11743358_a_at) / Fold change /veh PLEKHG5 (11743358_a_at) / RFU ZSCAN30 (11745921_a_at) / Fold change /veh ZSCAN30 (11745921_a_at) / RFU CMKLR1 (11741424_a_at) / Fold change /veh CMKLR1 (11741424_a_at) / RFU LOC101060620 /// MAPK8IP1 (11723275_at) / Fold change /veh LOC101060620 /// MAPK8IP1 (11723275_at) / RFU SPTSSB (11747773_x_at) / Fold change /veh SPTSSB (11747773_x_at) / RFU PRSS12 (11739890_at) / Fold change /veh PRSS12 (11739890_at) / RFU BIN1 (11741810_x_at) / Fold change /veh BIN1 (11741810_x_at) / RFU WNT11 (11732464_a_at) / Fold change /veh WNT11 (11732464_a_at) / RFU C10orf10 (11716521_a_at) / Fold change /veh C10orf10 (11716521_a_at) / RFU C5orf56 (11738089_at) / Fold change /veh C5orf56 (11738089_at) / RFU CYB561 (11721691_x_at) / Fold change /veh CYB561 (11721691_x_at) / RFU ANKRD19P (11752326_a_at) / Fold change /veh ANKRD19P (11752326_a_at) / RFU OR2T12 /// OR2T33 /// OR2T8 (11738714_s_at) / Fold change /veh OR2T12 /// OR2T33 /// OR2T8 (11738714_s_at) / RFU VCAN (11748164_a_at) / Fold change /veh VCAN (11748164_a_at) / RFU JSRP1 (11732532_at) / Fold change /veh JSRP1 (11732532_at) / RFU KRTAP10-11 (11738290_x_at) / Fold change /veh KRTAP10-11 (11738290_x_at) / RFU MYO3A (11730013_a_at) / Fold change /veh MYO3A (11730013_a_at) / RFU EBF3 (11725865_a_at) / Fold change /veh EBF3 (11725865_a_at) / RFU CAMK2N1 (11719241_x_at) / Fold change /veh CAMK2N1 (11719241_x_at) / RFU C5orf56 (11738088_a_at) / Fold change /veh C5orf56 (11738088_a_at) / RFU OLFML3 (11715873_a_at) / Fold change /veh OLFML3 (11715873_a_at) / RFU LOC100653217 /// NTM (11731650_a_at) / Fold change /veh LOC100653217 /// NTM (11731650_a_at) / RFU MAPK11 (11762145_a_at) / Fold change /veh MAPK11 (11762145_a_at) / RFU FIZ1 (11724087_x_at) / Fold change /veh FIZ1 (11724087_x_at) / RFU OASL (11726364_x_at) / Fold change /veh OASL (11726364_x_at) / RFU SOX15 (11748057_x_at) / Fold change /veh SOX15 (11748057_x_at) / RFU CD79A (11719716_a_at) / Fold change /veh CD79A (11719716_a_at) / RFU HIST1H1D (11736915_at) / Fold change /veh HIST1H1D (11736915_at) / RFU CASKIN2 (11723855_a_at) / Fold change /veh CASKIN2 (11723855_a_at) / RFU LOC730098 (11760151_x_at) / Fold change /veh LOC730098 (11760151_x_at) / RFU OR4N2 (11742367_at) / Fold change /veh OR4N2 (11742367_at) / RFU PRRT2 (11749266_a_at) / Fold change /veh PRRT2 (11749266_a_at) / RFU SNX32 (11753110_a_at) / Fold change /veh SNX32 (11753110_a_at) / RFU CDHR5 (11726645_a_at) / Fold change /veh CDHR5 (11726645_a_at) / RFU RCAN1 (11760418_a_at) / Fold change /veh RCAN1 (11760418_a_at) / RFU FAM167A (11723789_a_at) / Fold change /veh FAM167A (11723789_a_at) / RFU FAM26E (11764081_at) / Fold change /veh FAM26E (11764081_at) / RFU ISYNA1 (11749810_s_at) / Fold change /veh ISYNA1 (11749810_s_at) / RFU ACY1 (11761880_at) / Fold change /veh ACY1 (11761880_at) / RFU 11764098_at / Fold change /veh 11764098_at / RFU SAMD14 (11745864_x_at) / Fold change /veh SAMD14 (11745864_x_at) / RFU NPB (11741838_a_at) / Fold change /veh NPB (11741838_a_at) / RFU TMPRSS6 (11731388_a_at) / Fold change /veh TMPRSS6 (11731388_a_at) / RFU KRTAP10-2 (11738614_at) / Fold change /veh KRTAP10-2 (11738614_at) / RFU ARHGAP8 /// PRR5-ARHGAP8 (11727945_x_at) / Fold change /veh ARHGAP8 /// PRR5-ARHGAP8 (11727945_x_at) / RFU KRTAP5-7 /// NADSYN1 (11734609_at) / Fold change /veh KRTAP5-7 /// NADSYN1 (11734609_at) / RFU RASL12 (11751679_a_at) / Fold change /veh RASL12 (11751679_a_at) / RFU CDKN2B (11736163_a_at) / Fold change /veh CDKN2B (11736163_a_at) / RFU PRF1 (11729649_at) / Fold change /veh PRF1 (11729649_at) / RFU, ZNF638 /// ZNF638-IT1 / Fold change vs veh, ZNF638 /// ZNF638-IT1 / RFU, PANK3 / Fold change vs veh, PANK3 / RFU, SH3YL1 / Fold change vs veh, SH3YL1 / RFU, ZEB2 / Fold change vs veh, ZEB2 / RFU, NRIP1 / Fold change vs veh, NRIP1 / RFU, PTTG1IP / Fold change vs veh, PTTG1IP / RFU, CAPN2 / Fold change vs veh, CAPN2 / RFU, MED14 / Fold change vs veh, MED14 / RFU, SNORA58 / Fold change vs veh, SNORA58 / RFU, C1orf63 / Fold change vs veh, C1orf63 / RFU, LRRFIP1 / Fold change vs veh, LRRFIP1 / RFU, NDUFAF7 / Fold change vs veh, NDUFAF7 / RFU, SLC12A2 / Fold change vs veh, SLC12A2 / RFU, IBTK / Fold change vs veh, IBTK / RFU, ESF1 / Fold change vs veh, ESF1 / Fold change vs veh, TMEM50B / RFU, TAOK1 / Fold change vs veh, TAOK1 / RFU, ACBD3 / Fold change vs veh, ACBD3 / RFU, TMA16 / Fold change vs veh, TMA16 / RFU, RWDD3 / Fold change vs veh, RWDD3 / RFU, BCAT1 / Fold change vs veh, BCAT1 / RFU, EDEM3 / Fold change vs veh, EDEM3 / RFU, TMEM33 / Fold change vs veh, TMEM33 / RFU, WDR75 / Fold change vs veh, WDR75 / RFU, AHCTF1 / Fold change vs veh, AHCTF1 / RFU, TFRC / Fold change vs veh, TFRC / RFU, ZDHHC17 / Fold change vs veh, ZDHHC17 / RFU, NOM1 / Fold change vs veh, NOM1 / RFU, ARL8B / Fold change vs veh, ARL8B / RFU, ZBTB11 / Fold change vs veh, ZBTB11 / RFU, TAMM41 / Fold change vs veh, TAMM41 / RFU, KIAA1704 /// LOC100996395 / Fold change vs veh, KIAA1704 /// LOC100996395 / RFU, ING1 / Fold change vs veh, ING1 / RFU, TRMT61B / Fold change vs veh, TRMT61B / RFU, FUBP3 / Fold change vs veh, FUBP3 / RFU, TP53 / Fold change vs veh, TP53 / RFU, TNKS2 / Fold change vs veh, TNKS2 / RFU, ZFP14 / Fold change vs veh, ZFP14 / RFU, ACTR2 / Fold change vs veh, ACTR2 / RFU, PPP3R1 / Fold change vs veh, PPP3R1 / RFU, PIK3R1 / Fold change vs veh, PIK3R1 / RFU, HNRNPA1 / Fold change vs veh, HNRNPA1 / RFU, RNF170 / Fold change vs veh, RNF170 / RFU, ZNF28 / Fold change vs veh, ZNF28 / RFU, RNGTT / Fold change vs veh, RNGTT / RFU, OGT / Fold change vs veh, OGT / RFU, BRD1 / Fold change vs veh, BRD1 / RFU, MARS / Fold change vs veh, MARS / RFU, ZNF655 / Fold change vs veh, ZNF655 / RFU, FAHD1 / Fold change vs veh, FAHD1 / RFU, BDP1 / Fold change vs veh, BDP1 / RFU, LRRCC1 / Fold change vs veh, LRRCC1 / RFU, ARID1A / Fold change vs veh, ARID1A / RFU, ZNF146 / Fold change vs veh, ZNF146 / RFU, ZNF330 / Fold change vs veh, ZNF330 / RFU, GPN3 / Fold change vs veh, GPN3 / RFU, C9orf123 / Fold change vs veh, C9orf123 / RFU, N4BP2L2 / Fold change vs veh, N4BP2L2 / RFU, ARFIP1 / Fold change vs veh, ARFIP1 / RFU, FAM179B / Fold change vs veh, FAM179B / RFU, BCL10 / Fold change vs veh, BCL10 / RFU, UHRF1BP1L / Fold change vs veh, UHRF1BP1L / RFU, BET1 / Fold change vs veh, BET1 / RFU, CNOT2 / Fold change vs veh, CNOT2 / RFU, ZNF268 / Fold change vs veh, ZNF268 / Fold change vs veh, ZNF507 / RFU, DGCR2 / Fold change vs veh, DGCR2 / RFU, WDSUB1 / Fold change vs veh, WDSUB1 / Fold change vs veh, HSP90B1 /// MIR3652 / RFU, ADSS / Fold change vs veh, ADSS / RFU, GK / Fold change vs veh, GK / RFU, ZNF148 / Fold change vs veh, ZNF148 / RFU, TAF9 / Fold change vs veh, TAF9 / RFU, SLC1A5 / Fold change vs veh, SLC1A5 / RFU, SLMO2 / Fold change vs veh, SLMO2 / RFU, ABCC4 / Fold change vs veh, ABCC4 / RFU, LOC101060439 /// RAP1B / Fold change vs veh, LOC101060439 /// RAP1B / RFU, RFX7 / Fold change vs veh, RFX7 / RFU, GTPBP10 / Fold change vs veh, GTPBP10 / RFU, CNEP1R1 / Fold change vs veh, CNEP1R1 / RFU, BIVM-ERCC5 /// ERCC5 / Fold change vs veh, BIVM-ERCC5 /// ERCC5 / RFU, ILF3 / Fold change vs veh, ILF3 / RFU 11762660_at / Fold change /veh 11762660_at / RFU VCAN (11757783_s_at) / Fold change /veh VCAN (11757783_s_at) / RFU DDX43 (11728927_at) / Fold change /veh DDX43 (11728927_at) / RFU KRT8 (11758188_x_at) / Fold change /veh KRT8 (11758188_x_at) / RFU NKD1 (11759106_at) / Fold change /veh NKD1 (11759106_at) / RFU SRD5A1 (11742802_a_at) / Fold change /veh SRD5A1 (11742802_a_at) / RFU TPSAB1 /// TPSB2 (11721975_s_at) / Fold change /veh TPSAB1 /// TPSB2 (11721975_s_at) / RFU GSTM3 (11746129_a_at) / Fold change /veh GSTM3 (11746129_a_at) / RFU IL23R (11737362_x_at) / Fold change /veh IL23R (11737362_x_at) / RFU TMEM51 (11727254_a_at) / Fold change /veh TMEM51 (11727254_a_at) / RFU PIWIL2 (11732686_x_at) / Fold change /veh PIWIL2 (11732686_x_at) / RFU ORM1 (11744905_x_at) / Fold change /veh ORM1 (11744905_x_at) / RFU CCDC152 (11743942_at) / Fold change /veh CCDC152 (11743942_at) / RFU ECM1 (11717891_a_at) / Fold change /veh ECM1 (11717891_a_at) / RFU IL23R (11748794_a_at) / Fold change /veh IL23R (11748794_a_at) / RFU TNFAIP8L3 (11732012_x_at) / Fold change /veh TNFAIP8L3 (11732012_x_at) / RFU MBOAT4 (11741988_at) / Fold change /veh MBOAT4 (11741988_at) / RFU 11764193_at / Fold change /veh 11764193_at / RFU TMEM53 (11763286_at) / Fold change /veh TMEM53 (11763286_at) / RFU MAGEB2 (11727129_at) / Fold change /veh MAGEB2 (11727129_at) / RFU TMEM200A (11744735_a_at) / Fold change /veh TMEM200A (11744735_a_at) / RFU CCDC152 (11751479_a_at) / Fold change /veh CCDC152 (11751479_a_at) / RFU FAM211A (11726209_a_at) / Fold change /veh FAM211A (11726209_a_at) / RFU RGS16 (11746705_a_at) / Fold change /veh RGS16 (11746705_a_at) / RFU VCAN (11755009_s_at) / Fold change /veh VCAN (11755009_s_at) / RFU RHOB (11743442_s_at) / Fold change /veh RHOB (11743442_s_at) / RFU RGS16 (11720943_a_at) / Fold change /veh RGS16 (11720943_a_at) / RFU RGS16 (11720944_at) / Fold change /veh RGS16 (11720944_at) / RFU, VPS4B / Fold change vs veh, VPS4B / RFU, CREB1 / Fold change vs veh, CREB1 / RFU, DNAJC13 / Fold change vs veh, DNAJC13 / RFU, GNAQ / Fold change vs veh, GNAQ / RFU, CDK5R1 / Fold change vs veh, CDK5R1 / RFU, ZRANB3 / Fold change vs veh, ZRANB3 / RFU, CUL4A / Fold change vs veh, CUL4A / RFU, CCNY / Fold change vs veh, CCNY / RFU, UFL1 / Fold change vs veh, UFL1 / RFU, COG3 / Fold change vs veh, COG3 / RFU, DIAPH2 / Fold change vs veh, DIAPH2 / RFU, SKA2 / Fold change vs veh, SKA2 / RFU, AFF3 / Fold change vs veh, AFF3 / RFU, LMF1 / Fold change vs veh, LMF1 / RFU, IPO11 / Fold change vs veh, IPO11 / RFU, DFFB / Fold change vs veh, DFFB / RFU, FOXP1 / Fold change vs veh, FOXP1 / RFU, CARD8 / Fold change vs veh, CARD8 / RFU, STRN3 / Fold change vs veh, STRN3 / RFU, ADK / Fold change vs veh, ADK / RFU, RASSF2 / Fold change vs veh, RASSF2 / RFU, WIPF1 / Fold change vs veh, WIPF1 / RFU, LARP1B / Fold change vs veh, LARP1B / RFU, RASA1 / Fold change vs veh, RASA1 / RFU, RB1 / Fold change vs veh, RB1 / RFU, PPFIA1 / Fold change vs veh, PPFIA1 / RFU, MAT2A / Fold change vs veh, MAT2A / RFU, CCT5 / Fold change vs veh, CCT5 / RFU, WDR92 / Fold change vs veh, WDR92 / RFU, CUX1 / Fold change vs veh, CUX1 / RFU, TTC7A / Fold change vs veh, TTC7A / RFU, TMEM135 / Fold change vs veh, TMEM135 / RFU, DEPTOR / Fold change vs veh, DEPTOR / RFU, CPM / Fold change vs veh, CPM / RFU, DNAJB6 / Fold change vs veh, DNAJB6 / RFU, CACNA2D3 / Fold change vs veh, CACNA2D3 / RFU, DTX4 / Fold change vs veh, DTX4 / RFU, TFCP2 / Fold change vs veh, TFCP2 / RFU, GMCL1 /// GMCL1P1 / Fold change vs veh, GMCL1 /// GMCL1P1 / RFU, AEBP2 / Fold change vs veh, AEBP2 / RFU, SNHG1 /// SNORD22 /// SNORD25 /// SNORD26 /// SNORD27 /// SNORD28 /// SNORD29 /// SNORD31 / Fold change vs veh, SNHG1 /// SNORD22 /// SNORD25 /// SNORD26 /// SNORD27 /// SNORD28 /// SNORD29 /// SNORD31 / Fold change (Aza/veh), C12orf56 (ProbeSet 11735607_a_at) / Fold change (ACY-1035/veh), C12orf56 (ProbeSet 11735607_a_at) / Fold change (Aza/veh), FGFR1OP (ProbeSet 11751329_s_at) / Fold change (ACY-1035/veh), FGFR1OP (ProbeSet 11751329_s_at) / Fold change (Aza/veh), VPS36 (ProbeSet 11739960_a_at) / Fold change (ACY-1035/veh), VPS36 (ProbeSet 11739960_a_at) / RFU SYPL1 (11715823_x_at) / Fold change /veh SYPL1 (11715823_x_at) / RFU IGFBP7 (11715501_s_at) / Fold change /veh IGFBP7 (11715501_s_at) / RFU REEP3 (11722064_at) / Fold change /veh REEP3 (11722064_at) / RFU IGLL1 (11728026_x_at) / Fold change /veh IGLL1 (11728026_x_at): dose or concentration left out as unconfirmed
Conditions: ProbeSet 11754607_s_at; LIST B

Structure (SMILES): Nc1ccc(-c2cccs2)cc1NC(=O)c1ccc2c(c1)cc(C1CC1)n2CCN1CCOCC1 [ACY-1035]
- Fold change vs veh, HSP90B1 /// MIR3652: 0.87
